Reference: patent US20050267067A1, “Radical reaction inhibitors, method for inhibition of radical reactions, and use thereof” (priority 2002, published 2005)

Tests used:
[1] = Radical oxidation of linoleic acid by AAPH (conjugated diene, TBARS); settings: for Formed TBARS / Formed conjugated diene: 37° C., AAPH; for Conjugated diene formation: (%) / TBARS formation: (%): versus system with no cyclotetrasaccharide
Excerpt: As a negative control, a system of PBS with no cyclotetrasaccharide was provided and measured similarly as above. Conjugated diene was quantified by measuring the absorbance of test samples at a wavelength of 234 nm according to the method by Okamura et al., in Journal of Agricultural and Food Chemistry, Vol. 42, page 1,612 (1994). TABRS was quantified by allowing the sampled test specimens to react with thiobarbituric acid and measured for absorbance of the reaction mixture at a wavelength of 532 nm according to the method by Ohgawara et al., in Journal of Lipid Research, Vol. 19, page 1,053 (1978). The quantification of the formed TBARS in test samples was determined with a calibration curve provided in such a manner of diluting 1,1,3,3-tetraethoxypropane with ethanol into 10, 50 and 100 μg/ml dilutes, allowing the dilutes with thiobarbituric acid similarly as the test samples, measuring the absorbance of the resulting mixtures similarly as above, and drawing calibration curve based on the measured absorbances and the amount of TBARS calculated theoretically. The quantification of the formed conjugated diene in the test samples was determined by calculating the absorbances of the samples obtained in this experiment, based on the molar absorbance coefficient of molecules disclosed in Journal of Agricultural and Food Chemistry, Vol. 42, page 1,612 (1994). Tables 4 and 5 show the results on measurement for the formation level of conjugated diene and TBARS, respectively.

[2] = tested on: sucrase; assay: Sucrase activity of rat small intestinal mucosal enzyme solution after AAPH oxidation; format: biochemical
Description: One milliliter of the above rat small intestinal mucosal enzyme solution, one milliliter of a 100 mM AAPH solution, one milliliter of a 50 mM phosphate buffer (pH 7.2), and one milliliter of a 400 mM of the crystalline cyclotetrasaccharide pentahydrate prepared in Experiment 1-1 were mixed, incubated at 37° C. for two hours, and measured for the activities of sucrase and maltase.
After incubated at 37° C. for 30 min, the mixture was quantified for free glucose by the GOD method.

[3] = tested on: maltase; assay: Maltase activity of rat small intestinal mucosal enzyme solution after AAPH oxidation; format: biochemical
Description: One milliliter of the above rat small intestinal mucosal enzyme solution, one milliliter of a 100 mM AAPH solution, one milliliter of a 50 mM phosphate buffer (pH 7.2), and one milliliter of a 400 mM of the crystalline cyclotetrasaccharide pentahydrate prepared in Experiment 1-1 were mixed, incubated at 37° C. for two hours, and measured for the activities of sucrase and maltase. […] To a half milliliter of a maltose solution, which had been prepared by dissolving maltose in 50 mM sodium maleate (pH 6.6) to give a concentration of one percent (%), 0.05 ml of a AAPH-rat small intestinal mucosal enzyme solution. After incubated at 37° C. for 30 min, the mixture was quantified for free glucose by the GOD method. One unit (U) activity of maltase was defined as an enzyme amount that releases two micromoles of glucose per minutes from maltose at 37° C.

[4] = Preservation of vitamin D3 tablets at 60° C., absorbance at 265 nm; format: physicochemical; settings: after preserving for 14 days
[5] = reaction time 6 hr, listed as cyclotetrasaccharide
[6] = enzyme solution incubated with AAPH at 37° C. for two hours, with or without cyclotetrasaccharide
[7] = versus system with no AAPH, 37° C., two hours

OCC1OC2OCC3O[C@H](O[C@H]4C(O)C(CO)OC(OCC5O[C@H](O[C@@H](C1O)C2O)C(O)C(O)[C@@H]5O)C4O)C(O)C(O)[C@@H]3O (stereo partly drawn) [Cyclotetrasaccharide, cyclo{→6}-α-D-glucopyranosyl-(1→3)-α-D-glucopyranosyl-(1→6)-α-D-glucopyranosyl-(1→3)-α-D-glucopyranosyl-(1→}]
Formed TBARS ([1]; reaction time 0 hr): 0.00 μg/g-linoleic acid | Formed conjugated diene ([1]; reaction time 0 hr): 0.27 μg/g-linoleic acid | Conjugated diene formation: (%) ([1]; reaction time 0 hr): (100) % | Formed TBARS ([1]; reaction time 1 hr): 1.52 μg/g-linoleic acid | Formed conjugated diene ([1]; reaction time 1 hr): 5.16 μg/g-linoleic acid | Conjugated diene formation: (%) ([1]; reaction time 1 hr): (55) % | TBARS formation: (%) ([1]; reaction time 1 hr): (55) % | Formed TBARS ([1]; reaction time 2 hr): 3.55 μg/g-linoleic acid | Formed conjugated diene ([1]; reaction time 2 hr): 9.15 μg/g-linoleic acid | Conjugated diene formation: (%) ([1]; reaction time 2 hr): (51) % | TBARS formation: (%) ([1]; reaction time 2 hr): (35) % | Formed TBARS ([1]; reaction time 6 hr): 7.97 μg/g-linoleic acid | Formed conjugated diene ([1]; reaction time 6 hr): 23.83 μg/g-linoleic acid | Conjugated diene formation: (%) ([1]; reaction time 6 hr): (40) % | TBARS formation: (%) ([1]; reaction time 6 hr, listed as Cyclotetra-saccharide): (30) % | Conjugated diene formation: (%) [1, 5]: about 40% | TBARS formation: (%) [1, 5]: about 30% | Sucrase activity [2, 6]: 0.0105 u/mg-protein | Sucrase Relative residual activity (%) [2, 7]: (72) % | Maltase activity [3, 6]: 0.0669 u/mg-protein | Maltase Relative residual activity (%) [3, 7]: (85) % | residual vitamin D3 (%) [4]: 61%
